Experiments:
[1] = test system: human gastric cancer SGC-7901 tumor transplanted in nude mice; assay: Growth inhibition of human gastric cancer SGC-7901 tumor transplanted in nude mice; type: in vivo; settings: SGC-7901 xenograft
Protocol: (§1) Method: 1. Establishing model of human gastric cancer SGC-7901 tumor transplanted in nude mice, and animal groups: SGC_7901 cell lines were cultured with medium RPMI1640 containing 10% fetal bovine serum. SGC-7901 cells at logarithmic growth phase were trypsinized into single cell suspension. Final concentration of the cell was adjusted with medium RPMI1640 into 5×10^7/mL. 0.2 mL of cell suspension was injected subcutaneously into right anterior axillary of each nude mouse. 14 days after inoculation, when the tumor size grew to about 130 to 180 mm^3, the nude mice were randomized into five groups according to tumor size and body weight of mice, with 8-12 mice in each group. 5 groups were: a blank control group (purified water containing 0.5% of hydroxypropyl methylcellulose and 0.1% Tween 80, administered through gavage, each at morning and evening, for 10 days), 12.5, 25 and 50 mg/kg of I-1 treatment group (administered through gavage, each at morning and evening, for 10 days), and 100 mg/kg cyclophosphamide (CYP) group (by intraperitoneal injection, once every 5 days, for 2 weeks), respectively.
(§2) 2. Growth situation of subcutaneous human gastric cancer tumor transplanted in nude mice and inhibitory effect was observed: from the dosing day, body weight of nude mouse as well as the maximum diameter (D) and minimum diameter (d) of tumor were observed every two days. The tumor size was calculated following the formula V=Dd^2/2, and the tumor growth curve was plotted. At the end of the experiment, the tumor was dissected in whole and picture was taken. Growth rate of nude mouse body weight before and after treatment=[(body weight after treatment−body weight before treatment)/body weight before treatment]*100%; tumor inhibition rate=[1−(tumor size after treatment in the experiment group−tumor size before treatment in the experiment group)/(tumor size after treatment in the control group−tumor size before treatment in the control group)]*100%

[2] = test system: human gastric cancer MGC-803 tumor transplanted in nude mice; assay: Growth inhibition of human gastric cancer MGC-803 tumor transplanted in nude mice; type: in vivo; settings: MGC-803 xenograft
Protocol: (§3) Method: 1. Establishing model of human gastric cancer MGC-803 tumor transplanted in nude mice, and animal groups: MGC-803 cell lines were cultured with medium RPMI1640 containing 10% fetal bovine serum. MGC-803 cells at logarithmic growth phase were trypsinized into single cell suspension. Final concentration of the cell was adjusted with medium RPMI1640 into 5×10^7/mL. 0.2 mL of cell suspension was injected subcutaneously into right anterior axillary of each nude mouse. 8 days after inoculation, when the tumor size grew to about 110 mm^3, the mice were randomized into five groups according to tumor size and body weight of mice, with 10 mice in each group. 5 groups were: a blank control group (purified water containing 0.5% of hydroxypropyl methylcellulose and 0.1% Tween 80, administered through gavage, once per day, for […]), 4, 6 and 9 mg/kg of I-2 treatment group (administered through gavage, once per day, for 17 days), and 100 mg/kg cyclophosphamide group (by intraperitoneal injection, once every 7 days, for 3 weeks), respectively.
as §2, with “3-4” for “two”

[3] = test system: human gastric cancer cell line SGC-7901; assay: MTT growth inhibition assay, SGC-7901; type: cell-based; settings: SGC-7901, MTT, 96 hours incubation
Protocol: (§4) Method: Cells in the logarithmic growth phase (human gastric cancer cell lines SGC-7901, MGC-803, human oral epidermoid carcinoma cell line KB, human non-small cell lung cancer cell line A549, human breast ductal cancer cell line BT-549, human prostate cancer cell line PC-3, human colon cancer cell line HT-29, human brain astrocytic glioblastoma cell line U-87MG and a human hepatoma cell line SMMC-7721) at a concentrations of 1.5×10^4 were inoculated in 96 well plates. The original medium was removed after cell culture for 24 hours until adherence. The tests included blank control group and drug treatment group. For the control group, the medium was replaced with 1640 medium containing 10% fetal bovine serum; for the drug treatment group, the medium was replaced with medium containing compounds I-1, I-2 and I-3 to be tested at concentrations of 100 μM, 50 μM, 10 μM, 1 μM, 0.1 μM, 0.01 μM, 0.001 μM, 0.0001 μM and 0.00001 μM. After incubation for 96 hours add MTT at a concentration of 5 mg/mL, and resume incubation in a CO2 incubator for 4 hours. And then along the upper part of the culture solution, remove 100 μL, of supernatant, add 100 μL of DMSO, allow to place at a dark for 10 minutes. With a microplate reader (a product from Sunrise company), absorbance was measured (at wavelength 570 nm), and cell survival situation is calculated based on the absorbance. Six duplicated wells were set for each treatment. Cell viability (%)=ΔODdrug treatment/ΔODblank control×100.

[4] = test system: human gastric cancer cell line MGC-803; assay: MTT growth inhibition assay, MGC-803; type: cell-based; settings: MGC-803, MTT, 96 hours incubation
Protocol: as §4

[5] = test system: human oral epidermoid carcinoma cell line KB; assay: MTT growth inhibition assay, KB; type: cell-based; settings: 96 hours incubation
Protocol: as §4

[6] = test system: human non-small cell lung cancer cell line A549; assay: MTT growth inhibition assay, A549; type: cell-based; settings: 96 hours incubation
Protocol: as §4

[7] = test system: human breast ductal cancer cell line BT-549; assay: MTT growth inhibition assay, BT-549; type: cell-based; settings: BT-549, MTT, 96 hours incubation
Protocol: as §4

[8] = test system: human prostate cancer cell line PC-3; assay: MTT growth inhibition assay, PC-3; type: cell-based; settings: PC-3, MTT, 96 hours incubation
Protocol: as §4

[9] = test system: human colon cancer cell line HT-29; assay: MTT growth inhibition assay, HT-29; type: cell-based; settings: HT-29, MTT, 96 hours incubation
Protocol: as §4

[10] = test system: human brain astrocytic glioblastoma cell line U-87MG; assay: MTT growth inhibition assay, U-87MG; type: cell-based; settings: U-89MG [sic], 96 hours incubation
Protocol: as §4

[11] = test system: human hepatoma cell line SMMC-7721; assay: MTT growth inhibition assay, SMMC-7721; type: cell-based; settings: SMMC-7721, MTT, 96 hours incubation
Protocol: as §4

[12] = Body weight change / toxicity in SGC-7901 tumor-bearing nude mice
Protocol: as §1
(§5) 2. […] The tumor size was calculated following the formula V=Dd^2/2, and the tumor growth curve was plotted. […]

[13] = test system: a variety of human tumor cell lines; assay: Growth inhibition on various strains of human tumor cell with MTT assay (overall statements); type: cell-based; settings: in words
Protocol: as §4, with “Six duplicated wells were set for each treatment. Cell viability (%)=ΔODdrug treatment/ΔODblank control×100.” left out

[14] = Body weight change / toxicity in MGC-803 tumor-bearing nude mice
Protocol: as §3, §5

SMILES | IC50 [3] | IC50 [4] | IC50 [5] | IC50 [6] | IC50 [7] | IC50 [8] | IC50 [9] | IC50 [10] | IC50 [11] | Inhibitory effect on the growth of a variety of human tumor cell lines [13] | also measured
O=P1(N(CCCl)CCCl)NCCCO1 (centres unmarked) [CYP, cyclophosphamide, reference compound] | – | – | – | – | – | – | – | – | – | – | Tumor inhibition rate ([1]; 100 mg/kg, intraperitoneal injection, once every 5 days, for 2 weeks): 39.5%; Tumor inhibition rate ([2]; 100 mg/kg, intraperitoneal injection, once every 7 days, for 3 weeks): 62.4%
Cc1cc2c(cn1)C(c1ccccc1Cl)=Nc1c(n[nH]c1C)N2 [Compound I-1] | 290 ± 130 nM | 980 ± 40 nM | 1350 ± 50 nM | 690 ± 240 nM | 390 ± 230 nM | 1900 ± 390 nM | 160 ± 40 nM | 400 ± 20 nM | 140 ± 30 nM | very significant inhibition | Tumor inhibition rate ([1]; 12.5 mg/kg, gavage, each at morning and evening, for 10 days): 67.5%; Tumor inhibition rate ([1]; 25 mg/kg, gavage, each at morning and evening, for 10 days): 83%; Tumor inhibition rate ([1]; 50 mg/kg, gavage, each at morning and evening, for 10 days): 88.6%; Toxic side effect ([12]; 12.5, 25 and 50 mg/kg, gavage, twice daily, 10 days): negligible toxic side effect; Effect on weight gain of nude mouse ([12]; only for the highest dose of 50 mg/kg, FIG. 3): mild effect on weight gain
CCc1cc2c(cn1)C(c1ccccc1Cl)=Nc1c(n[nH]c1C)N2 [Compound I-2, 9-(2-chlorophenyl)-6-ethyl-1-methyl-2,4-dihydrogen-2,3,4,7,10-pentaaza-benzo [f] azulene] | 90 ± 10 nM | 700 ± 20 nM | 620 ± 10 nM | 250 ± 140 nM | 70 ± 30 nM | 850 ± 100 nM | 80 ± 10 nM | 60 ± 40 nM | 40 ± 10 nM | very significant inhibition | Tumor inhibition rate ([2]; 4 mg/kg, gavage, once per day, for 17 days): 72.5%; Tumor inhibition rate ([2]; 6 mg/kg, gavage, once per day, for 17 days): 97.3%; Tumor inhibition rate ([2]; 9 mg/kg, gavage, once per day, for 17 days): 100%; Toxic side effect ([14]; 4, 6 and 9 mg/kg, gavage, once per day, 17 days): negligible toxic side effect; Effect on weight gain of nude mouse ([14]; only for the highest dose of 9 mg/kg on treatment day 3-6, FIG. 6): mild effect on weight gain
Cc1cc2c(cn1)C(c1ccccc1F)=Nc1c(n[nH]c1C)N2 [Compound I-3] | 1630 ± 130 nM | 4860 ± 390 nM | 7270 ± 590 nM | 3250 ± 250 nM | 1950 ± 230 nM | 11300 ± 1300 nM | 740 ± 80 nM | 1940 ± 240 nM | 820 ± 190 nM | – | –

Source: US9382249B2, “Antitumor aza-benzo [f] azulen derivative, method for preparing same, and use thereof” (TIANYI BIOSCIENCE CO. LTD., priority 2012, dated 2016)
